# Source: patent publication US11396511B2, “Substituted 9,13b-dihydro-1H-dibenzo[c,f]imidazo[1,5-a]azepin-3-ylbenzamides as anti-inflammatory and analgesic agents” (FRONTBIO CO., LTD., priority 2017, dated 2022)
# Several values for one entry are separate records, joined by “and”; a condition that tells them apart may be missing. Equal entries are not always repeated.
# What was measured:
# [1] = tested on: anticancer drug-induced peripheral neuropathy models (vincristine); experiment: Von-frey test in anticancer drug-induced peripheral neuropathy models; format: in vivo, mice; parameters: threshold values (Von-frey test): unit not given here
# Description: Vincristine is an anticancer drug that is widely used to treat malignant tumors, including breast cancer, leukemia, lymphoma, and primary brain tumor. However, vincristine was reported to cause neurotoxicity in peripheral nervous fibers and sensory or motor neuropathy after use. The anticancer drug vincristine is known to cause predictable and consistent neurotoxicity in all patients, particularly patients treated with therapeutic doses. When a patient receives a dose of vincristine, paresthesia accompanied by pain is first observed in proportion to the dose. As neuropathy develops, axons are lost together with motor function. Vincristine is also known to induce hypersensitivity of C nerve fiber nociceptors in the peripheral nervous system. Neuropathy was induced by administration of vincristine. First, 0.05 mg/kg of vincristine was administered intraperitoneally. Thereafter, vincristine was administered intraperitoneally twice a week for 6 weeks (0.125 mg/kg each). Neuropathic pain began to appear at week 3 after administration and significant pain was reported at week 4. The degree of neuropathic pain was measured through the […] (Junzo et al., 2005).
# (§1) After damage to the sciatic nerve, allodynia induced by the mechanical stimulus was measured. Mice were housed in acrylic chambers on a steel mesh floor and acclimated for ≥60 min before testing. Continuous responses were evaluated using Von-frey filaments by the up-down method. The filaments were brought into vertical contact with the affected left soles and the contact was maintained for 5-6 sec. The response was considered to be positive when the mouse rapidly avoided the stimulus, startled or licked its sole. The Von-frey filaments were first used to stimulate the mice.
# The analgesic efficacies of the test substances were evaluated in anticancer drug-induced peripheral neuropathy models. To this end, after oral administration of each test substance at concentrations of 10, 20, 40, and 80 mg/kg, threshold values were measured at different periods of time through Von-frey test.
# MAPK = experiment: Western blot analysis, MAPK signaling by LPS signals; format: cell-based
# Protocol: Cells were harvested, washed with 1×PBS, and suspended by adding a mixture of a protein extraction buffer (150 mM NaCl, 50 mM Tris-HCl pH 7.4, 5 mM EDTA pH 8.0, 1% NP-40) and a protease inhibitor cocktail. Then, the reaction was allowed to proceed in ice for 20 min, sonicated, and centrifuged (13,000 rpm, 30 min). The concentration of proteins in the supernatant was quantified by a BCA protein assay and proteins were separated on the basis of size on an SDS-PAGE gel. Thereafter, proteins were transferred to a PVDF membrane and blocked with skim milk for 1 h. Primary and secondary antibodies were coupled and photosensitized with ECL solution to determine the expression levels of desired proteins.
# mice = experiment: Formalin test (5% formalin, hind foot sole); format: in vivo; parameters: formalin test pain response: unit not given beside the values; settings: for analgesic efficacy in formalin test (in words): 10, 20, 40, 80 mg/kg
# Protocol: 5% formalin was injected subcutaneously into the soles of the hind feet of mice. The mice licked their soles and shook their paws owing to formalin-induced pain. At 20-40 min post-injection (2nd phase), the mice again licked their soles or shook their paws. Pain felt for 5 min post-injection (1st phase) is the same level as the sensation of pain when the body is harmfully stimulated. Pain between 20 and 40 min (2nd phase) is mainly tonic inflammatory pain and is known to be very similar to pain after a big surgical operation.
# 30 min after pretreatment with the compound 3 (E-S) at concentrations of 10, 20, 40, and 80 mg/kg, formalin test was conducted to assess the analgesic efficacy of the compound 3. […] The analgesic efficacy of the compound 4 (E-A) was assessed in the same manner as that of the compound 3.
# [2] = tested on: streptozotocin-induced diabetic mice; experiment: Von-frey test in diabetic neuropathy models; format: in vivo; parameters: threshold values (Von-frey test): unit not given here; settings: for analgesic efficacy, Von-frey test (in words): oral 10, 20, 40, 80 mg/kg; for concentration of highest analgesic efficacy, Von-frey test: oral 10, 20, 40, 80 mg/kg tested
# Protocol: 65 mg/kg of streptozotocin (Sigma Corp., USA) was dissolved at a concentration of 15 mg/ml in 0.1 M citrate buffer at pH 4.5 and the resulting solution was administered intraperitoneally to mice. Blood glucose levels were measured 1 week after administration and streptozotocin-induced diabetic mice were chosen.
# as §1
# The inhibitory effects of the test substances on pain were determined in diabetic neuropathy models. To this end, after oral administration of each test substance at concentrations of 10, 20, 40, and 80 mg/kg, threshold values were measured at different periods of time through Von-frey test.
# [3] = 10 mg/kg, first column group (1st phase, not given)
# [4] = 10 mg/kg, second column group (2nd phase, not given)
# [5] = 20 mg/kg, first column group (1st phase, not given)
# [6] = 20 mg/kg, second column group (2nd phase, not given)
# [7] = 40 mg/kg, first column group (1st phase, not given)
# [8] = 40 mg/kg, second column group (2nd phase, not given)
# [9] = 80 mg/kg, first column group (1st phase, not given)
# [10] = 80 mg/kg, second column group (2nd phase, not given)
compound,measurement,setting,value
"O=C(NC1=NCC2c3ccccc3Cc3ccccc3N12)c1ccccc1O (centres unmarked) [E-S, N-(9,13b-dihydro-1H-dibenzo[c,f]imidazo[1,5-a]azepin-3-yl)-2-hydroxybenzamide]","concentration of highest analgesic efficacy, Von-frey test","[1]; 1 h after treatment, oral 10, 20, 40, 80 mg/kg tested",80 mg/kg
same,threshold values (Von-frey test),"[1]; oral 10 mg/kg, 1 h",0.110
same,threshold values (Von-frey test),"[1]; oral 10 mg/kg, 2 h",0.163
same,threshold values (Von-frey test),"[1]; oral 10 mg/kg, 3 h",0.180
same,threshold values (Von-frey test),"[1]; oral 10 mg/kg, 4 h",0.145
same,threshold values (Von-frey test),"[1]; oral 10 mg/kg, 5 h",0.135
same,threshold values (Von-frey test),"[1]; oral 10 mg/kg, basal",0.113
same,threshold values (Von-frey test),"[1]; oral 20 mg/kg, 1 h",0.173
same,threshold values (Von-frey test),"[1]; oral 20 mg/kg, 2 h",0.208
same,threshold values (Von-frey test),"[1]; oral 20 mg/kg, 3 h",0.191
same,threshold values (Von-frey test),"[1]; oral 20 mg/kg, 4 h",0.137
same,threshold values (Von-frey test),"[1]; oral 20 mg/kg, 5 h",0.194
same,threshold values (Von-frey test),"[1]; oral 20 mg/kg, basal",0.157
same,threshold values (Von-frey test),"[1]; oral 40 mg/kg, 1 h",0.324
same,threshold values (Von-frey test),"[1]; oral 40 mg/kg, 2 h",0.306
same,threshold values (Von-frey test),"[1]; oral 40 mg/kg, 3 h",0.270
same,threshold values (Von-frey test),"[1]; oral 40 mg/kg, 4 h",0.239
same,threshold values (Von-frey test),"[1]; oral 40 mg/kg, 5 h",0.194
same,threshold values (Von-frey test),"[1]; oral 40 mg/kg, basal",0.173
same,threshold values (Von-frey test),"[1]; oral 80 mg/kg, 1 h",0.408
same,threshold values (Von-frey test),"[1]; oral 80 mg/kg, 2 h",0.385
same,threshold values (Von-frey test),"[1]; oral 80 mg/kg, 3 h",0.390
same,threshold values (Von-frey test),"[1]; oral 80 mg/kg, 4 h",0.239
same,threshold values (Von-frey test),"[1]; oral 80 mg/kg, 5 h",0.242
same,threshold values (Von-frey test),"[1]; oral 80 mg/kg, basal",0.176
same,"analgesic efficacy, Von-frey test (in words)","[1]; oral 10, 20, 40, 80 mg/kg",concentration-dependent until 1 h after treatment and was maintained until 3 h after treatment
same,effect on MAPK signaling by LPS signals,MAPK,did not appear to significantly affect MAPK signaling
same,formalin test pain response,mice; [3],66.25
same,formalin test pain response,mice; [4],48.5
same,formalin test pain response,mice; [5],60.5
same,formalin test pain response,mice; [6],48.25
same,formalin test pain response,mice; [7],60.5
same,formalin test pain response,mice; [8],45.0
same,formalin test pain response,mice; [9],52.0
same,formalin test pain response,mice; [10],44.5
same,analgesic efficacy in formalin test (in words),mice,observed in the 2nd phase
same,threshold values (Von-frey test),"[2]; oral 10 mg/kg, 1 h",0.247
same,threshold values (Von-frey test),"[2]; oral 10 mg/kg, 2 h",0.208
same,threshold values (Von-frey test),"[2]; oral 10 mg/kg, 3 h",0.363
same,threshold values (Von-frey test),"[2]; oral 10 mg/kg, 4 h",0.330
same,threshold values (Von-frey test),"[2]; oral 10 mg/kg, 5 h",0.286
same,threshold values (Von-frey test),"[2]; oral 10 mg/kg, basal",0.247
same,threshold values (Von-frey test),"[2]; oral 20 mg/kg, 1 h",0.286
same,threshold values (Von-frey test),"[2]; oral 20 mg/kg, 2 h",0.208
same,threshold values (Von-frey test),"[2]; oral 20 mg/kg, 3 h",0.314
same,threshold values (Von-frey test),"[2]; oral 20 mg/kg, 4 h",0.186
same,threshold values (Von-frey test),"[2]; oral 20 mg/kg, 5 h",0.324
same,threshold values (Von-frey test),"[2]; oral 20 mg/kg, basal",0.208
same,threshold values (Von-frey test),"[2]; oral 40 mg/kg, 1 h",0.314
same,threshold values (Von-frey test),"[2]; oral 40 mg/kg, 2 h",0.391
same,threshold values (Von-frey test),"[2]; oral 40 mg/kg, 3 h",0.352
same,threshold values (Von-frey test),"[2]; oral 40 mg/kg, 4 h",0.314
same,threshold values (Von-frey test),"[2]; oral 40 mg/kg, 5 h",0.391
same,threshold values (Von-frey test),"[2]; oral 40 mg/kg, basal",0.225
same,threshold values (Von-frey test),"[2]; oral 80 mg/kg, 1 h",0.613
same,threshold values (Von-frey test),"[2]; oral 80 mg/kg, 2 h",0.574
same,threshold values (Von-frey test),"[2]; oral 80 mg/kg, 3 h",0.391
same,threshold values (Von-frey test),"[2]; oral 80 mg/kg, 4 h",0.419
same,threshold values (Von-frey test),"[2]; oral 80 mg/kg, 5 h",0.225
same,threshold values (Von-frey test),"[2]; oral 80 mg/kg, basal",0.164
same,"analgesic efficacy, Von-frey test (in words)",[2],concentration-dependent until 1-2 h after treatment
same,"concentration of highest analgesic efficacy, Von-frey test",[2],80 mg/kg
"CC(=O)Oc1ccccc1C(=O)NC1=NCC2c3ccccc3Cc3ccccc3N12 (centres unmarked) [E-A, 2-((9,13b-dihydro-1H-dibenzo[c,f]imidazo[1,5-a]azepin-3-yl)carbamoyl)phenyl acetate]",effect on MAPK signaling by LPS signals,MAPK,found to affect both MAPK signaling and Akt signaling by LPS signals and reduce the activity of proteins
same,formalin test pain response,mice; [3],73.0
same,formalin test pain response,mice; [4],102.0
same,formalin test pain response,mice; [5],54.7
same,formalin test pain response,mice; [6],83.5
same,formalin test pain response,mice; [7],62.0
same,formalin test pain response,mice; [8],60.0
same,formalin test pain response,mice; [9],61.5
same,formalin test pain response,mice; [10],60.0
same,analgesic efficacy in formalin test (in words),mice,observed in the 2n^d phase
same,threshold values (Von-frey test),"[2]; oral 10 mg/kg, 1 h",0.260
same,threshold values (Von-frey test),"[2]; oral 10 mg/kg, 2 h",0.263
same,threshold values (Von-frey test),"[2]; oral 10 mg/kg, 3 h",0.324
same,threshold values (Von-frey test),"[2]; oral 10 mg/kg, 4 h",0.286
same,threshold values (Von-frey test),"[2]; oral 10 mg/kg, 5 h",0.225
same,threshold values (Von-frey test),"[2]; oral 10 mg/kg, basal",0.286
same,threshold values (Von-frey test),"[2]; oral 20 mg/kg, 1 h",0.263
same,threshold values (Von-frey test),"[2]; oral 20 mg/kg, 2 h",0.324
same,threshold values (Von-frey test),"[2]; oral 20 mg/kg, 3 h",0.321
same,threshold values (Von-frey test),"[2]; oral 20 mg/kg, 4 h",0.247
same,threshold values (Von-frey test),"[2]; oral 20 mg/kg, 5 h",0.225
same,threshold values (Von-frey test),"[2]; oral 20 mg/kg, basal",0.186
same,threshold values (Von-frey test),"[2]; oral 40 mg/kg, 1 h",0.286
same,threshold values (Von-frey test),"[2]; oral 40 mg/kg, 2 h",0.458
same,threshold values (Von-frey test),"[2]; oral 40 mg/kg, 3 h",0.419
same,threshold values (Von-frey test),"[2]; oral 40 mg/kg, 4 h",0.391
same,threshold values (Von-frey test),"[2]; oral 40 mg/kg, 5 h",0.186
same,threshold values (Von-frey test),"[2]; oral 40 mg/kg, basal",0.247
same,threshold values (Von-frey test),"[2]; oral 80 mg/kg, 1 h",0.391
same,threshold values (Von-frey test),"[2]; oral 80 mg/kg, 2 h",0.391
same,threshold values (Von-frey test),"[2]; oral 80 mg/kg, 3 h",0.247
same,threshold values (Von-frey test),"[2]; oral 80 mg/kg, 4 h",0.286
same,threshold values (Von-frey test),"[2]; oral 80 mg/kg, 5 h",0.186
same,threshold values (Von-frey test),"[2]; oral 80 mg/kg, basal",0.208
same,"analgesic efficacy, Von-frey test (in words)",[2],concentration-dependent from 1 h after treatment and was maintained until 3 h after treatment
same,"concentration of highest analgesic efficacy, Von-frey test",[2],40 mg/kg and 80 mg/kg
